Results from US20250346600A1, “TRICYCLIC DERIVATIVES AND RELATED USES” (MOMA Therapeutics, Inc., priority 2023, published 2025).

Tests used:
[1] = target: T1, Full length WRN protein (aa 2-1432) (Homo sapiens (Human), UniProt Q14191); assay: WRN ATPase ADP-Glo biochemical assay, Assay Format A (10 μM ATP); conditions: 0.25 nM WRN, 100 nM C6.18 ssDNA, 30 min preincubation, read-out: ATPase ADPGlo AC50 (uM)- Assay Format A
How it was run: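 ADP-Glo luminescence measured hydrolysis of ATP by purified, baculovirus-expressed N-terminally tagged full-length WRN. Enzyme (0.5 nM) was preincubated 30 min with compound, then 200 nM ssDNA C6.18 plus 20 μM ATP were added (pre-mix levels) for 30 min at RT. IC50s come from four-parameter fits, geometric mean of at least two trials.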

HT29 cells = assay: HT29 (MSS) 7 day viability, CellTiter Glo; assay type: cell-based; conditions: Homo sapiens, HT-29, 168 h, 7 days, read-out: HT29 (MSS) Viability 7 Day CTGAbs AC50
How it was run: (§1)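 HCT116 seeded at 50 cells/well and HT29 at 500 cells/well onto compound plates (10-point 3-fold dilutions from 10 mM DMSO stock), incubated 7 days at 37 °C, 5% CO2.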

[2] = target: T1, Full length WRN protein (aa 2-1432); assay: WRN ATPase ADP-Glo biochemical assay, Assay Format B (100 μM ATP); conditions: 0.25 nM WRN, 100 nM C6.18 ssDNA, 60 min preincubation, read-out: ATPase ADPGlo AC50 (uM)- Assay Format B
HCT116 cells = assay: HCT116 (MSI) 7 day viability, CellTiter Glo; assay type: cell-based; conditions: Homo sapiens, HCT-116, 168 h, 7 days, read-out: HCT116 (MSI) Viability 7 Day Abs AC50
How it was run: as §1

T1 sequence (Q14191 2-1432): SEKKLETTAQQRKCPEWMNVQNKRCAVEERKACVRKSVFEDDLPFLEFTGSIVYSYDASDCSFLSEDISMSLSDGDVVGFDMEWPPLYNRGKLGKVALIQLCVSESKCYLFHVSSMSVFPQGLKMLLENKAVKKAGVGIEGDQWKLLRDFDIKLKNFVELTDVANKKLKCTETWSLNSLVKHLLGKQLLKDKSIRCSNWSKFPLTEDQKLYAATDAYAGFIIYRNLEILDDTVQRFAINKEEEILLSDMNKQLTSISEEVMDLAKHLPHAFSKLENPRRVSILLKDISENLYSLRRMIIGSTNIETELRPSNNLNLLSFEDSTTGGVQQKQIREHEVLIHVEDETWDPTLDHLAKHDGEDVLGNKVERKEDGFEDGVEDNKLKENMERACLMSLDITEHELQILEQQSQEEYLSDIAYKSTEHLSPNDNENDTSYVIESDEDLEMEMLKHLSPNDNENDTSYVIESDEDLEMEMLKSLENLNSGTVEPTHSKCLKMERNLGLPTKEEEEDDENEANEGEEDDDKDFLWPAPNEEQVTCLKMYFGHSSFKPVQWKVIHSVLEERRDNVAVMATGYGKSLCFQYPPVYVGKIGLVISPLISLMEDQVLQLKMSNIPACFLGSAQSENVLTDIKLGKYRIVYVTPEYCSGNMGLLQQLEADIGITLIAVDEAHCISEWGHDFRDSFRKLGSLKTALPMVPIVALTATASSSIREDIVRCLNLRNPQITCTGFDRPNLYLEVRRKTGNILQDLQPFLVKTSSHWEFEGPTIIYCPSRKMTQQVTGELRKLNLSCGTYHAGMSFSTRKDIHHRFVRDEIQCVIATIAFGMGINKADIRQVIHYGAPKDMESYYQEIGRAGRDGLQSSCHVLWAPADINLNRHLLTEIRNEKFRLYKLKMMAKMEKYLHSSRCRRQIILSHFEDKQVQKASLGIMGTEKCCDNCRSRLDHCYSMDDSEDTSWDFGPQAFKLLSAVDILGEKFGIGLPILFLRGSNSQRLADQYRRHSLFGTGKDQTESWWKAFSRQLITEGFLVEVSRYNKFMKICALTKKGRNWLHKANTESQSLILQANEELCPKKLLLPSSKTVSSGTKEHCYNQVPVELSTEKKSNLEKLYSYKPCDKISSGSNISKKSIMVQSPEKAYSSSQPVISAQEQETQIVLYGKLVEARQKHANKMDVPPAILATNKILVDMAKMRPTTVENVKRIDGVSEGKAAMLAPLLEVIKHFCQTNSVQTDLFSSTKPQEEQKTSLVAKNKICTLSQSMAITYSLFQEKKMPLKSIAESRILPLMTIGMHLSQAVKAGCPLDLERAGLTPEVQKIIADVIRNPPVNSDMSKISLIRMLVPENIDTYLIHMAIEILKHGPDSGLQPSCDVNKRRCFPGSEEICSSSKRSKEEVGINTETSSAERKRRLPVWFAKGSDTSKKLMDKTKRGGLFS

| SMILES | AC50 [1] [µM] | AC50 [2] [µM] | AC50 (HT29 cells) [nM] | AC50 (HCT116 cells) [nM] |
| --- | --- | --- | --- | --- |
| C=CC(=O)N1CCc2nn(-c3ccc(C4CCC4)cc3O)c3c2C(C1)N(C(=O)c1ncc(Br)c2[nH]cnc12)CC3 (centres unmarked) [Compound 95, 1-(5-(7-bromo-1H-imidazo[4,5-c]pyridine-4-carbonyl)-2-(4-cyclobutyl-2-hydroxyphenyl)-2,3,4,5,5a,6,8,9-octahydro-7H-1,2,5,7-tetraazabenzo[cd]azulen-7-yl)prop-2-en-1-one] | < 0.0015 | 0.0015 to 0.005 | > 3000 | 1 to 100 |
| C=CC(=O)N1CC(C)c2nn(-c3ccc(C4CCC4)cc3O)c3c2C(C1)N(C(=O)c1cnc(C(F)(F)F)cc1N)CC3 (centres unmarked) [Compound 130, 1-(5-(4-amino-6-(trifluoromethyl)nicotinoyl)-2-(4-cyclobutyl-2-hydroxyphenyl)-9-methyl-2,3,4,5,5a,6,8,9-octahydro-7H-1,2,5,7-tetraazabenzo[cd]azulen-7-yl)prop-2-en-1-one] | < 0.0015 | 0.005 to 0.015 | > 3000 | 1 to 100 |
| C=CC(=O)N1CCc2nn(-c3ccc(C45CC(C4)C5)nc3)c3c2C(C1)N(C(=O)c1ccc(Br)c2[nH]cnc12)CC3 (centres unmarked) [Compound 29, 1-(2-(6-(bicyclo[1.1.1]pentan-1-yl)pyridin-3-yl)-5-(7-bromo-1H-benzo[d]imidazole-4-carbonyl)-2,3,4,5,5a,6,8,9-octahydro-7H-1,2,5,7-tetraazabenzo[cd]azulen-7-yl)prop-2-en-1-one] | 0.015 to 0.055 | > 0.055 | > 3000 | 100 to 250 |
| C=CC(=O)N1CCc2nn(-c3ccc(C4CC4)cc3O)c3c2C(C1)N(C(=O)c1cnc(Br)c(F)c1N)CC3 (centres unmarked) [Compound 202, 1-(5-(4-amino-6-bromo-5-fluoronicotinoyl)-2-(4-cyclopropyl-2-hydroxyphenyl)-2,3,4,5,5a,6,8,9-octahydro-7H-1,2,5,7-tetraazabenzo[cd]azulen-7-yl)prop-2-en-1-one] | 0.0015 to 0.005 | 0.0015 to 0.005 | > 3000 | 1 to 100 |
| C=CC(=O)N1CCc2nn(-c3ccc(C(C)C)cc3O)c3c2C(C1)N(C(=O)c1cnc(Br)c2[nH]cnc12)CC3 (centres unmarked) [Compound 22, 1-(5-(4-bromo-3H-imidazo[4,5-c]pyridine-7-carbonyl)-2-(2-hydroxy-4-isopropylphenyl)-2,3,4,5,5a,6,8,9-octahydro-7H-1,2,5,7-tetraazabenzo[cd]azulen-7-yl)prop-2-en-1-one] | 0.0015 to 0.005 | 0.015 to 0.055 | > 3000 | 250 to 500 |

Further lines, with some results ahead:

| AC50 [1] [µM] | AC50 [2] [µM] | SMILES | AC50 (HT29 cells) [nM] | AC50 (HCT116 cells) [nM] |
| --- | --- | --- | --- | --- |
| < 0.0015 | 0.005 to 0.015 | C=CC(=O)N1CCc2nn(-c3ccc(C4CCC4)cc3O)c3c2C(C1)N(C(=O)c1ccc(C(F)(F)F)nc1)CC3 (centres unmarked) [Compound 96, 1-(2-(4-cyclobutyl-2-hydroxyphenyl)-5-(6-(trifluoromethyl)nicotinoyl)-2,3,4,5,5a,6,8,9-octahydro-7H-1,2,5,7-tetraazabenzo[cd]azulen-7-yl)prop-2-en-1-one] | > 3000 | 1 to 100 |
| < 0.0015 | 0.015 to 0.055 | C=CC(=O)N1CCc2nn(-c3ccc(C(C)C)cc3)c3c2C(C1)N(C(=O)c1cnc(C(F)(F)F)c(OC)c1)CC3 (centres unmarked) [Compound 12, 1-(2-(4-isopropylphenyl)-5-(5-methoxy-6-(trifluoromethyl)nicotinoyl)-2,3,4,5,5a,6,8,9-octahydro-7H-1,2,5,7-tetraazabenzo[cd]azulen-7-yl)prop-2-en-1-one] | > 3000 | 1 to 100 |
| 0.005 to 0.015 | > 0.055 | C=CC(=O)N1CCOc2nn(-c3ccc(C(C)C)cc3)c3c2C(C1)N(C(=O)c1cnc(C(F)(F)F)c(O)c1)CC3 (centres unmarked) [Compound 47, 1-(5-(5-hydroxy-6-(trifluoromethyl)nicotinoyl)-2-(4-isopropylphenyl)-2,3,4,5,5a,6,8,9-octahydro-7H-10-oxa-1,2,5,7-tetraazacycloocta[cd]inden-7-yl)prop-2-en-1-one] | > 3000 | > 1000 |
